According to ChEMBL document CHEMBL4842321, “Novel benzenesulfonamides aryl and arylsulfone conjugates adopting tail/dual tail approaches: Synthesis, carbonic anhydrase inhibitory activity and molecular modeling studies” (Eur J Med Chem, 2021):

Key:
[1] = test system: MCF-10A; assay: cells; conditions: Homo sapiens
Description: Antiproliferation activity against human MCF-10A cells assessed as reduction in cell viability under hypoxic conditions by MTT assay

[2] = molecular target: Carbonic anhydrase 9 (Homo sapiens, UniProt Q16790); assay: Inhibition of recombinant human carbonic anhydrase 9 by stopped-flow CO2 hydration assay
[3] = test system: MCF7; assay: Antiproliferation activity against human MCF7 cells assessed as reduction in cell viability under hypoxic conditions by MTT assay
[4] = molecular target: Carbonic anhydrase 4 (Homo sapiens, UniProt P22748); assay: Inhibition of recombinant human carbonic anhydrase 4 by stopped-flow CO2 hydration assay
Sequence of Carbonic anhydrase 4 (P22748 whole entry): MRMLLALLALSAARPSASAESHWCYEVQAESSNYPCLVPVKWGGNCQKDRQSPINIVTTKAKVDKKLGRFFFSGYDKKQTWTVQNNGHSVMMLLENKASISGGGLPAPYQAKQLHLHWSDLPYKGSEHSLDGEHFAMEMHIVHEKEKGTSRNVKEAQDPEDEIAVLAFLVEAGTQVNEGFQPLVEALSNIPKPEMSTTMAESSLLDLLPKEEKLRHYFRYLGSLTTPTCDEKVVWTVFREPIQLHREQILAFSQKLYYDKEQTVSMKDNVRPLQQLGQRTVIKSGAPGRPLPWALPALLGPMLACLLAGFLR

[5] = molecular target: Carbonic anhydrase 2 (Homo sapiens, UniProt P00918); assay: Inhibition of recombinant human carbonic anhydrase 2 by stopped-flow CO2 hydration assay
[6] = molecular target: Carbonic anhydrase 1 (Homo sapiens, UniProt P00915); assay: Inhibition of recombinant human carbonic anhydrase 1 by stopped-flow CO2 hydration assay
Sequence of Carbonic anhydrase 1 (P00915 whole entry): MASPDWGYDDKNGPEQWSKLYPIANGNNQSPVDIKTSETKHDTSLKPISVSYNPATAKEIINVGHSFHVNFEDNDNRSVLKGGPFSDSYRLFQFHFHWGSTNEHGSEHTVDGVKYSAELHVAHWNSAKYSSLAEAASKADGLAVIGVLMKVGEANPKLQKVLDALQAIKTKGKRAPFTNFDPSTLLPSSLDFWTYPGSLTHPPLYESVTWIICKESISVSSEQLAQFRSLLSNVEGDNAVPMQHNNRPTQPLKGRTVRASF

SMILES	IC50 [1]	Ki [2]	IC50 [3]	Ki [4]	Ki [5]	Ki [6]
NS(=O)(=O)c1ccc(N/C=C(\C(=O)c2ccc(Br)cc2)S(=O)(=O)c2ccccc2)cc1	20.4 µM	3.03 µM	62.7 µM			
NS(=O)(=O)c1ccc(N/C=C(\C(=O)c2ccc(Cl)cc2)S(=O)(=O)c2ccccc2)cc1	28 µM	3.01 µM	15.1 µM			
C/C(=N/NC(=O)c1ccc(S(N)(=O)=O)cc1)c1ccc(Cl)cc1	62.7 µM	0.319 µM	3.75 µM			
NS(=O)(=O)c1ccc(C(=O)N/N=C\c2ccc(Br)cc2)cc1	27.7 µM	2.21 µM	1.37 µM			
O=C(O)c1ccc(N/N=C(/CS(=O)(=O)c2ccccc2)c2ccc(Br)cc2)cc1		> 100 µM		> 100 µM	> 100 µM	> 100 µM
NS(=O)(=O)c1ccc(C(=O)N/N=C(/CS(=O)(=O)c2ccccc2)c2ccccc2)cc1	84.8 µM	0.769 µM	10.7 µM			
NS(=O)(=O)c1ccc(C(=O)N/N=C(/CS(=O)(=O)c2ccccc2)c2ccc(Cl)cc2)cc1	25.6 µM	0.818 µM	57 µM			
NS(=O)(=O)c1ccc(N/N=C(\C(=O)c2ccccc2)S(=O)(=O)c2ccccc2)cc1	14.1 µM	1.61 µM	1.74 µM			
NS(=O)(=O)c1ccc(N/N=C(/CS(=O)(=O)c2ccccc2)c2ccccc2)cc1	46.1 µM	2.49 µM	3.97 µM			
NS(=O)(=O)c1ccc(C(=O)N/N=C\c2ccc(F)cc2)cc1	35.9 µM	2.37 µM	9.17 µM			
C/C(=N/NC(=O)c1ccc(S(N)(=O)=O)cc1)c1ccc(Br)cc1	37.6 µM	0.962 µM	2.29 µM			
NS(=O)(=O)c1ccc(C(=O)N/N=C(/CS(=O)(=O)c2ccccc2)c2ccc(F)cc2)cc1	63.7 µM	1.12 µM	0.62 µM			
NS(=O)(=O)c1ccc(N/N=C(/CS(=O)(=O)c2ccccc2)c2ccc(Cl)cc2)cc1	28.6 µM	2.91 µM	8.01 µM			
NS(=O)(=O)c1ccc(N/C=C(\C(=O)c2ccccc2)S(=O)(=O)c2ccccc2)cc1	17.9 µM	2.76 µM	3.44 µM			
C/C(=N/NC(=O)c1ccc(S(N)(=O)=O)cc1)c1ccc(F)cc1	22 µM	1.45 µM	31.9 µM			
O=C(O)c1ccc(N/C=C(\C(=O)c2ccc(Br)cc2)S(=O)(=O)c2ccccc2)cc1		> 100 µM		> 100 µM		> 100 µM
C/C(=N/NC(=O)c1ccc(S(N)(=O)=O)cc1)c1ccccc1	31.1 µM	0.322 µM	20.1 µM			
O=C(O)c1ccc(N/N=C(/CS(=O)(=O)c2ccccc2)c2ccccc2)cc1		> 100 µM		> 100 µM		
NS(=O)(=O)c1ccc(C(=O)N/N=C\c2ccc(Cl)cc2)cc1	82 µM	2.09 µM	36.7 µM			
NS(=O)(=O)c1ccc(C(=O)N/N=C(/CS(=O)(=O)c2ccccc2)c2ccc(Br)cc2)cc1	34.1 µM	0.289 µM	19.1 µM			
O=C(O)c1ccc(N/C=C(\C(=O)c2ccccc2)S(=O)(=O)c2ccccc2)cc1		> 100 µM		> 100 µM	> 100 µM	> 100 µM
O=C(O)c1ccc(N/N=C(\C(=O)c2ccccc2)S(=O)(=O)c2ccccc2)cc1		> 100 µM		> 100 µM	> 100 µM	> 100 µM
O=C(O)c1ccc(N/C=C(\C(=O)c2ccc(Cl)cc2)S(=O)(=O)c2ccccc2)cc1		> 100 µM		> 100 µM	> 100 µM	> 100 µM
NS(=O)(=O)c1ccc(N/N=C(/CS(=O)(=O)c2ccccc2)c2ccc(Br)cc2)cc1	12.9 µM	0.909 µM	17.3 µM			
NS(=O)(=O)c1ccc(C(=O)N/N=C\c2ccccc2)cc1	39.4 µM	0.869 µM	14.9 µM			
O=C(O)c1ccc(N/N=C(/CS(=O)(=O)c2ccccc2)c2ccc(Cl)cc2)cc1		> 100 µM				> 100 µM
O=c1[nH]cc(F)c(=O)[nH]1 [FLUOROURACIL]	17.2 µM		12.5 µM			
